Laboratory results as given in publication PMC10526857, “In Vitro Enzymatic Studies Reveal pH and Temperature Sensitive Properties of the CLIC Proteins” (Biomolecules, 2023).

Key:
CLIC3 [1] = target: T1, CLIC3 (Homo sapiens, UniProt O95833); assay: HEDS assay coupled to glutathione reductase, NADPH consumption at […] nm, Lineweaver-Burk; format: biochemical; settings: 1 mM GSH, 250 µM NADPH, 0.5 µg/mL yeast GR, 10 µM CLIC, 5 mM potassium phosphate pH 7, 1 mM EDTA, 37 °C
T1 construct: recombinant, E. coli BL21(DE3), pET-28a His-tag cut off with thrombin, Ni-NTA and SEC purified

CLIC4 [2] = target: T2, CLIC4 (Homo sapiens, UniProt Q9Y696); assay: as above; format: biochemical; settings: 1 mM GSH, 250 µM NADPH, 0.5 µg/mL yeast GR, 10 µM CLIC, 5 mM potassium phosphate pH 7, 1 mM EDTA, 37 °C
T2 construct: recombinant, E. coli, pGEX-4T-1 N-terminal GST tag cut off with thrombin, SEC purified

CLIC1 [3] = target: T3, CLIC1 (Homo sapiens, UniProt O00299); settings: 1 mM GSH, 250 µM NADPH, 0.5 µg/mL yeast GR, 10 µM CLIC, 5 mM potassium phosphate pH 7, 1 mM EDTA, 37 °C
CLIC3 [4] = target: T1, CLIC3; assay: inhibition of HEDS reductase activity, GR-coupled NADPH consumption at […] nm; format: biochemical; settings: 10 µM inhibitor, 10 µM CLIC, 1 h preincubation at 4 °C; 1 mM HEDS, 1 mM GSH, 250 µM NADPH, 0.5 µg/mL GR, pH 7, 37 °C
CLIC4 [5] = target: T2, CLIC4; assay: as above; format: biochemical; settings: 10 µM inhibitor, 10 µM CLIC, 1 h preincubation at 4 °C; 1 mM HEDS, 1 mM GSH, 250 µM NADPH, 0.5 µg/mL GR, pH 7, 37 °C
CLIC1 [6] = target: T3, CLIC1; assay: as above; format: biochemical; design: recombinant, E. coli BL21(DE3), pET-28a His-tag cut off with thrombin, Ni-NTA and SEC purified; settings: 10 µM inhibitor, 10 µM CLIC, 1 h preincubation at 4 °C; 1 mM HEDS, 1 mM GSH, 250 µM NADPH, 0.5 µg/mL GR, pH 7, 37 °C

T1 sequence (O95833 whole entry): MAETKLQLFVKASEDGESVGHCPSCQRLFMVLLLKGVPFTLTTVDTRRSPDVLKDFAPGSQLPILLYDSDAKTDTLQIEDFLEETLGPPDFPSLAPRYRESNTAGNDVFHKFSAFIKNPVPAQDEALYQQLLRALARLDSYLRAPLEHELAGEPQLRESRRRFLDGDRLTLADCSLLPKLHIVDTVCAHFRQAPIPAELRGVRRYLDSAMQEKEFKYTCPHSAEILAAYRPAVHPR
T2 sequence (Q9Y696 whole entry): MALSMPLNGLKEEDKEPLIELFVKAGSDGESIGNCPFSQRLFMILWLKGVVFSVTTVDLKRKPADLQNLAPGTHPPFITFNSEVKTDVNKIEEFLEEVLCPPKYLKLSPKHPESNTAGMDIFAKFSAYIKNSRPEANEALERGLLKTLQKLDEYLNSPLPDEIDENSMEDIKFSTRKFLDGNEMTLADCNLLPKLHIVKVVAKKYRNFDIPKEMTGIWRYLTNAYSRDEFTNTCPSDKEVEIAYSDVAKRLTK

| Structure (SMILES) | Km (CLIC3 [1]) [µM] | Km (CLIC4 [2]) [µM] | Km (CLIC1 [3]) [µM] | residual activity (%) at 10 μM (CLIC3 [4]) | residual activity (%) at 10 μM (CLIC4 [5]) | residual activity (%) at 10 μM (CLIC1 [6]) |
| --- | --- | --- | --- | --- | --- | --- |
| OCCSSCCO [HEDS] | 266 | 345 | 274 |  |  |  |
| C[C@@H]1[C@H](O)[C@@H](C)/C=C/C=C/C=C/C=C/C=C/C=C/C=C/[C@H](O[C@@H]2O[C@H](C)[C@@H](O)[C@H](N)[C@@H]2O)C[C@@H]2O[C@](O)(C[C@@H](O)C[C@@H](O)[C@H](O)CC[C@@H](O)C[C@@H](O)CC(=O)O[C@H]1C)C[C@H](O)[C@H]2C(=O)O [amphotericin B] |  |  |  | Both rapamycin and amphotericin B caused inhibition of the enzymatic activity of all three proteins | Both rapamycin and amphotericin B caused inhibition of the enzymatic activity of all three proteins | with CLIC1′s activity virtually abolished by all three drugs |
| CO[C@H]1C[C@@H]2CC[C@@H](C)[C@@](O)(O2)C(=O)C(=O)N2CCCC[C@H]2C(=O)O[C@H]([C@H](C)C[C@@H]2CC[C@@H](O)[C@H](OC)C2)CC(=O)[C@H](C)/C=C(\C)[C@@H](O)[C@@H](OC)C(=O)[C@H](C)C[C@H](C)/C=C/C=C/C=C/1C [rapamycin] |  |  |  | Both rapamycin and amphotericin B caused inhibition of the enzymatic activity of all three proteins | Both rapamycin and amphotericin B caused inhibition of the enzymatic activity of all three proteins | with CLIC1′s activity virtually abolished by all three drugs |
